The sequences below were run on mitochondria of triticale microspores (assay: qRT-PCR of gfp mRNA, microspores transfected with pWMaadA16GFP). Conditions: gfp reporter construct.
Type: cell-based
Text: FIG. 17 is a plot showing the level of expression (fold increase, average of 4 replicates) of GFP in triticale microspores transfected with the pWMaadA16GFP plasmid in the presence of mTP1 (SEQ ID NO: 1), mTP2 (SEQ ID NO: 2), mTP3 (SEQ ID NO: 3), mTP4 (SEQ ID NO: 4) or mTP5 (SEQ ID NO: 5) compared to the level of expression (fold increase) of the internal control elongation factor 1a (EF1a), as measured by quantitative real time PCR of mRNA levels;
Wheat mitochondrial aadA16GFP reporter plasmid (pWMaadA16GFP, FIG. 11) is a 4587 base pair wheat specific mitochondrial transformation vector, which targets insertions into the fourth repeat region between the trnfM and rm18 gene cluster which is repeated three times in the Triticum aestivum mitochondrial genome. The insertion site is in the Triticum aestivum mitochondrial genome at nucleotides 300805-300878 and 300880-302834 (GenBank accession No. AP008982.1). A multiple cloning site is introduced following the tmfM target insertion sequence. The selection marker gene is an organelle codon specific aad-gfp fusion gene, which facilitates a dual selection method of spectinomycin resistance through an aadA derivative and visual detection by GFP fluorescence (GenBank accession No. ABX39486; Khan and Maliga, Nat. Biotechnol. (1999 September) 17(9): 910-5). The selection marker gene is driven by the Triticum aestivum mitochondrial atpA gene promoter (GenBank accession No. X54387.1). The aad-gfp fusion gene is terminated with the TpsbA terminator sequence derived from the Triticum aestivum mitochondrial genome at nucleotides 62871-62565 (GenBank accession No. AP008982.1).
(§1) The dsDNA construct (pWMaadA16GFP for mitochondrial expression or pWCaadA16GFP for expression in chloroplasts) is combined with the mTP (for mitochondrial expression) or cTP (for expression in chloroplasts) in the amounts used in the protoplast transformation experiments described above in a final volume of 100 μl of NBP-99 solution. The mixture is incubated for 10 minutes at room temperature, then incubated with isolated triticale microspores (500 μl, 10^6 microspores/ml, prepared as described in Example 2) for 1 h in the dark at room temperature. NBP-99 solution (500 μl) is added and the mixture is incubated in the dark for 24 h. The cells are imaged using confocal microscopy, as described in Example 2, using MitoTracker® Orange staining to visualize mitochondria.
(§2) Microspores are disrupted using a cleaned ceramic bead and aggressive shaking as the tissue is thawing. RLT buffer/B-Me (450 μl) is added and the sample is vortexed. The sample is heated at 55° C. for 1 minute and vortexed again. RNA is extracted using an RNeasy™ Plant Mini Kit (Qiagen), incorporating on-column DNase I digestion into the protocol. The final elution volume is 40 μl. RNA is assessed using both agarose gel […] (to ensure RNA is intact) and spectrophotometry (for quantification).
cDNA is generated using a First Strand Synthesis kit (Invitrogen). RNA (1 μg) is added to each sample and the manufacturer's protocol for synthesis followed, with the exception that the volume of the reaction mixture is increased from 20 μl to 30 μl. A negRT sample containing all reagents but no RNA is included in the cDNA synthesis as a negative control. […]
(§3) Real time PCR reactions are performed using QuantiTect™ SYBR™ Green PCR Master Mix (Qiagen) in a 20 μl reaction volume. […]

How did the “GFP expression by mitochondria confirmed by qRT-PCR” value turn out when MAAWMRSLFSPLKKLWIRMH (Zea mays) [mTP2] was run?
The value was “GFP is expressed”.

Which “GFP expression by mitochondria confirmed by qRT-PCR” value does the source give for “MFSYLPRYPLRAASARALVRATRPSYRSALLRYQ (listed as Triticum aestivum) [mTP1]” here?
The value was “GFP is expressed”.

With “MKLLWRLILSRKW (listed as Arabidopsis thaliana) [mTP3]” as the sequence, how does the “GFP expression by mitochondria confirmed by qRT-PCR” value read?
The value was “GFP is expressed”.

“MLFRLRRSVRLRGLLA (listed as Arabidopsis thaliana) [mTP5]” was tested. Which “GFP expression by mitochondria confirmed by qRT-PCR” value did it give?
Its value is “GFP is expressed”.

“MWWRRSRTNSLRYT (listed as Arabidopsis thaliana) [mTP4]” was tested. Which “GFP expression by mitochondria confirmed by qRT-PCR” value did it give?
The value was “GFP is expressed”.

These sequences were tested on proplastids of triticale microspores (assay: qRT-PCR of gfp mRNA, microspores transfected with pWCaadA16GFP). Conditions: gfp reporter construct.
Type: cell-based
Text: FIG. 18 is a plot showing the level of expression (fold increase, average of 4 replicates) of GFP in triticale microspores transfected with the pWCaadA16GFP plasmid in the presence of cTP1 (SEQ ID NO: 6), cTP2 (SEQ ID NO: 7), cTP3 (SEQ ID NO: 8), cTP4 (SEQ ID NO: 9) or cTP5 (SEQ ID NO: 10) compared to the level of expression (fold increase) of the internal control elongation factor 1a (EF1a), as measured by quantitative real time PCR of mRNA levels;
Wheat chloroplast aadA16GFP reporter plasmid (pWCaadA16GFP, FIG. 12) is a 4212 base pair wheat specific plastid transformation vector, which targets insertions into the tml-tmA inverted repeat regions of the Triticum aestivum plastid genome at nucleotides 92850-93727 and 93794-94671 (GenBank accession No. AB042240.3). A multiple cloning site is introduced following the tml target insertion sequence. The selection marker gene is an organelle codon specific aad-gfp fusion gene, which facilitates a dual selection method of spectinomycin resistance through an aadA derivative and visual detection by GFP fluorescence (GenBank accession No. ABX39486; Khan and Maliga, Nat. Biotechnol. (1999 September) 17(9): 910-5). The selection marker gene is driven by the Triticum aestivum plastid genome promoter (psbA) at nucleotides 1282-1153 (GenBank accession No. AB042240.3). The aad-gfp fusion gene is terminated with the rice psbA terminator sequence derived from chloroplast transformation vector pVSR326 nucleotides 4014-4387 (GenBank accession No. AF527485.1).
as §1, §2
cDNA is generated using a First Strand Synthesis kit (Invitrogen). RNA (1 μg) is added to each sample and the manufacturer's protocol for synthesis followed, with the exception that the volume of the reaction mixture is increased from 20 μl to 30 μl. A negRT sample containing all reagents but no RNA is included in the cDNA synthesis as a negative control.
Standard curves are generated for both elongation factor 1a (EF1a) (internal control) and green fluorescent protein (GFP) (test) genes. […]
as §3

How did the “GFP expression by proplastids confirmed by qRT-PCR” value turn out when “MAALIPAIASLPRAQVEKPHPMPVSTRPGLVS (listed as Triticum aestivum) [cTP4]” was run?
Its value is “GFP is expressed”.

Which “GFP expression by proplastids confirmed by qRT-PCR” value does the source give for “MGGCVSTPKSCVGAKLR (listed as Arabidopsis thaliana) [cTP1]” here?
The value was “GFP is expressed”.

For “MQTLTASSSVSSIQRHRPHPAGRRSSSVTFS (listed as Triticum aestivum) [cTP2]”, which “GFP expression by proplastids confirmed by qRT-PCR” value is on record?
The value was “GFP is expressed”.

For “MSSPPPLFTSCLPASSPSIRRDSTSGSVTSPLR (listed as Arabidopsis thaliana) [cTP5]”, which “GFP expression by proplastids confirmed by qRT-PCR” value is on record?
The value was “GFP is expressed”.
